What all share (type): biochemical
In one experiment the target is T1, K-Ras G12D (Homo sapiens, UniProt P01116, G12D).
T1 construct: made in house; host or cells: E. coli BL21 (DE3)
The experiment can be described thus: HTRF resonance energy transfer assay, K-Ras G12D / SOS1 interaction. As to conditions: HTRF assay of Example 5; read-out: IC50 against K-Ras G12D. An excerpt:
(§1) This assay can be also used to assess a selective inhibition or reduction of signaling output of a mutant Ras protein relative to a wildtype, or relative to a different mutant Ras protein. For example, the equilibrium interaction of wildtype Kras or K-Ras mutant (e.g., wildtype or a mutant thereof) with SOS1 (e.g., hSOS1) can be assessed as a proxy or an indication for a subject compound's ability to bind and inhibit Ras protein. HTRF assay detects from (i) a fluorescence resonance energy transfer (FRET) donor (e.g., antiGST-Europium) that is bound to GST-tagged K-Ras mutant to (ii) a FRET acceptor (e.g., anti-6His-XL665) bound to a His-tagged hSOS1.
(§2) The assay buffer can contain˜5 mM HEPES pH 7.4, ˜150 mM NaCl, ˜ 1 mM DTT, 0.05% BSA and 0.0025%(v/v) Igepal. A Ras working solution is prepared in an assay buffer containing typically a suitable amount of the protein construct (e.g., GST-tagged K-Ras mutant) and the FRET donor (e.g., antiGST-Eu(K) from Cisbio, France). A SOS1 working solution is prepared in an assay buffer containing suitable amount of the protein construct (e.g., His-hSOS1) and the FRET acceptor (e.g., anti-6His-XL665 from Cisbio, France). A suitable amount of the protein construct will depend on the range of activity or range of IC50 values being detected or under investigation. For detecting IC50 within a range of 500 nM, the protein constructs of the same range of molarity can be utilized.
(§3) A fixed volume of DMSO with or without test compound is transferred into a 384-well plate. Ras working solution is added to all wells of the test plate. SOS1 working solution is added to all wells except for those that are subsequently filled the inhibitor control solution. Upon incubation for about 10 minutes or longer, the fluorescence is measured with a M1000Pro plate reader (Tecan) using HTRF detection (excitation 337 nm, emission 1: 620 nm, emission 2: 665 nm). Compounds are tested in duplicates at different concentrations (for example, 10 μM, 2.5 μM, 0.63 μM, 0.16 μM, 0.04 μM, 0.01 μM test compound). The ratiometric data (i.e., emission 2 divided by emission 1) is used to calculate IC50 values against Ras using GraphPad Prism (GraphPad software). Following this general procedure, samples were tested with or without a subject compound disclosed herein including compounds exemplified in Table 1 to assess their abilities to inhibit a K-Ras mutant relative to another mutant or WT. Signaling output measured in terms of IC50 values can be obtained, a ratio of IC50 against one mutant relative to another mutant can be calculated. For instance, a selective reduction of K-Ras G12D signaling output can be evidenced by a ratio greater than one. In particular, a selective reduction of K-Ras G12D signaling relative to K-Ras WT signaling is evidenced as the ratio of IC50 (against K-Ras WT) to IC50 (against K-Ras G12D) is greater than 1.
(In general: In TR-FRET formats the signal depends on donor and acceptor labels being close together.)

For the next experiment, the target named is T2, K-Ras G12S (Homo sapiens, UniProt P01116, G12S).
T2 construct: made in house; host or cells: E. coli BL21 (DE3)
T2 sequence (P01116 1-188 isoform P01116-2 G12S): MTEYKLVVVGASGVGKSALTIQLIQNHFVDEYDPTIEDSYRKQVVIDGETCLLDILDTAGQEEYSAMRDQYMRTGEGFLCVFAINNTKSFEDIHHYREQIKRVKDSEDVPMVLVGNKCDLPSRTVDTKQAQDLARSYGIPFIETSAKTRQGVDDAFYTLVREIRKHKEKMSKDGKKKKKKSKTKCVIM
Put plainly: HTRF resonance energy transfer assay, K-Ras G12S / SOS1 interaction. As to conditions: HTRF assay of Example 5; read-out: IC50 against K-Ras G12S.
From the text: as §1, §2, §3

A further experiment concerns the target T3, K-Ras G12V (Homo sapiens, UniProt P01116, G12V).
T3 construct: made in house; host or cells: E. coli BL21 (DE3)
The experiment can be described thus: HTRF resonance energy transfer assay, K-Ras G12V / SOS1 interaction. The conditions noted are these: HTRF assay of Example 5; read-out: IC50 against K-Ras G12V.
From the text: as §1, §2, §3

Another experiment addresses T4, K-Ras WT (Homo sapiens, UniProt P01116).
T4 construct: made in house; host or cells: E. coli BL21 (DE3)
Put plainly: HTRF resonance energy transfer assay, K-Ras WT / SOS1 interaction. As to conditions: HTRF assay of Example 5; read-out: IC50 against K-Ras WT.
From the text: as §1, §2, §3

The results in this text go back to patent US12209102B2, “Heterocyclic compounds and uses thereof” (Kumquat Biosciences Inc., priority 2022, dated 2025).

Some results are limits rather than exact numbers.

T3 sequence (P01116 1-188 isoform P01116-2 G12V): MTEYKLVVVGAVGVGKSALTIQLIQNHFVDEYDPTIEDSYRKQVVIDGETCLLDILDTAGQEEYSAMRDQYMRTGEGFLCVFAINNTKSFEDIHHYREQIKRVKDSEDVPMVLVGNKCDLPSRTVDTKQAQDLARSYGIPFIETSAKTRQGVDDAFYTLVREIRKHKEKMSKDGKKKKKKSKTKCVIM
T1 sequence (P01116 1-188 isoform P01116-2 G12D): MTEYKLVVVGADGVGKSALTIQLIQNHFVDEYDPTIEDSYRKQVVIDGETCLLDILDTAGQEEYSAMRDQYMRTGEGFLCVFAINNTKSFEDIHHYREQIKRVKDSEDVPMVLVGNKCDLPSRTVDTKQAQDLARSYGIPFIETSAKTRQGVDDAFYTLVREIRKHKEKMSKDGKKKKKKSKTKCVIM
T4 sequence (P01116 1-188 isoform P01116-2): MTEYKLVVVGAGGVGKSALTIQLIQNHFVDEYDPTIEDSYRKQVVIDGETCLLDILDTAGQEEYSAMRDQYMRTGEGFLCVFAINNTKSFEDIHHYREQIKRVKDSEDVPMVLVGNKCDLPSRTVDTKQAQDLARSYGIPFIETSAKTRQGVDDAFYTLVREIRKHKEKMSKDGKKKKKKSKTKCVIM

With `C=C(C(F)F)[C@H]1COc2c(Cl)c(-c3ccc(F)c4sc(N)c(C#N)c34)c(F)c3nc(OC[C@@]45CCCN4C[C@H](F)C5)nc(c23)N1CC(F)F` (single isomer, unassigned) [Compound 629], the half-inhibitory concentration (IC50) at K-Ras G12D, at K-Ras G12S, on K-Ras G12V and at K-Ras WT was less than 100 nM each time.

For `N#Cc1c(N)sc2c(F)ccc(-c3c(Cl)c4c5c(nc(OC[C@@]67CCCN6C[C@H](F)C7)nc5c3F)N(CC(F)F)[C@@H](c3cnco3)CO4)c12` (single isomer, unassigned) [Compound 763], the IC50 on K-Ras G12D, at K-Ras G12S, on K-Ras G12V and on K-Ras WT was less than 100 nM in each case.

Turning to `N#Cc1c(N)sc2c(F)ccc(-c3c(Cl)c4c5c(nc(OC[C@@]67CCCN6C[C@H](F)C7)nc5c3F)N(C3CCOC3)[C@@H](C(F)F)CO4)c12` (stereo partly drawn) [Compound 620, 2-amino-4-((5R)-8-chloro-5-(difluoromethyl)-10-fluoro-2-(((2R,7aS)-2-fluorotetrahydro-1H-pyrrolizin-7a(5H)-yl)methoxy)-4-(tetrahydrofuran-3-yl)-5,6-dihydro-4H-[1,4]oxazepino[5,6,7-de]quinazolin-9-yl)-7-fluorobenzo[b]thiophene-3-carbonitrile], the IC50 at K-Ras G12D and on K-Ras WT was less than 100 nM throughout.

Turning to `N#Cc1c(N)sc2c(F)ccc(-c3c(Cl)c4c5c(nc(OC[C@@]67CCCN6C[C@H](F)C7)nc5c3F)N(CC(F)F)[C@@H](C3CCC3)CO4)c12` [Compound 692, 2-amino-4-((S)-8-chloro-5-cyclobutyl-4-(2,2-difluoroethyl)-10-fluoro-2-(((2R,7aS)-2-fluorotetrahydro-1H-pyrrolizin-7a(5H)-yl)methoxy)-5,6-dihydro-4H-[1,4]oxazepino[5,6,7-de]quinazolin-9-yl)-7-fluorobenzo[b]thiophene-3-carbonitrile], the IC50 at K-Ras G12D, at K-Ras G12V and on K-Ras WT was less than 100 nM each time.

As to `C[C@H]1COc2c(Cl)c(-c3ccc(F)c4sc(N)c(C#N)c34)c(F)c3nc(OC[C@@]45CCCN4C[C@H](F)C5)nc(c23)N1CC(F)F` [Compound 783, 2-amino-4-((5S)-8-chloro-4-(2,2-difluoroethyl)-10-fluoro-2-(((2R,7aS)-2-fluorotetrahydro-1H-pyrrolizin-7a(5H)-yl)methoxy)-5-methyl-5,6-dihydro-4H-[1,4]oxazepino[5,6,7-de]quinazolin-9-yl)-7-fluorobenzo[b]thiophene-3-carbonitrile], the IC50 (as a rule, the concentration needed to halve the response being measured) on K-Ras G12D was less than 100 nM.

`C[C@H]1CN(C2CCN(C(=O)C(F)F)CC2)c2nc(OC[C@@]34CCCN3C[C@H](F)C4)nc3c(F)c(-c4ccc(F)c5sc(N)c(C#N)c45)c(Cl)c(c23)O1` [Compound 822, 2-amino-4-((6S)-8-chloro-4-(1-(2,2-difluoroacetyl)piperidin-4-yl)-10-fluoro-2-(((2R,7aS)-2-fluorotetrahydro-1H-pyrrolizin-7a(5H)-yl)methoxy)-6-methyl-5,6-dihydro-4H-[1,4]oxazepino[5,6,7-de]quinazolin-9-yl)-7-fluorobenzo[b]thiophene-3-carbonitrile]: the concentration for half-maximal inhibition (IC50) at K-Ras G12D, on K-Ras G12S and on K-Ras WT was less than 100 nM throughout.

Turning to `CS(=O)(=O)NCC1COc2c(Cl)c(-c3ccc(F)c4sc(N)c(C#N)c34)c(F)c3nc(OC[C@@]45CCCN4C[C@H](F)C5)nc(c23)N1CC(F)F` (stereo partly drawn) [Compound 867, N-((9-(2-amino-3-cyano-7-fluorobenzo[b]thiophen-4-yl)-8-chloro-4-(2,2-difluoroethyl)-10-fluoro-2-(((2R,7aS)-2-fluorotetrahydro-1H-pyrrolizin-7a(5H)-yl)methoxy)-5,6-dihydro-4H-[1,4]oxazepino[5,6,7-de]quinazolin-5-yl)methyl)methanesulfonamide], the IC50 at K-Ras G12D, at K-Ras G12S and at K-Ras WT was less than 100 nM each time.

In the case of `C[C@H]1CN(CC2(N(C)C)CCC2)c2nc(OC[C@@]34CCCN3C[C@H](F)C4)nc3c(F)c(-c4ccc(F)c5sc(N)c(C#N)c45)c(Cl)c(c23)O1` [Compound 910, 2-amino-4-((6S)-8-chloro-4-((1-(dimethylamino)cyclobutyl)methyl)-10-fluoro-2-(((2R,7aS)-2-fluorotetrahydro-1H-pyrrolizin-7a(5H)-yl)methoxy)-6-methyl-5,6-dihydro-4H-[1,4]oxazepino[5,6,7-de]quinazolin-9-yl)-7-fluorobenzo[b]thiophene-3-carbonitrile], the IC50 at K-Ras G12D and on K-Ras WT was less than 100 nM in each case.

Take `N#Cc1c(N)sc2c(F)ccc(-c3c(Cl)c4c5c(nc(OC[C@@]67CCCN6C[C@H](F)C7)nc5c3F)N(CC3(C(F)(F)F)CC3)CCO4)c12` [Compound 953, 2-amino-4-(8-chloro-10-fluoro-2-(((2R,7aS)-2-fluorotetrahydro-1H-pyrrolizin-7a(5H)-yl)methoxy)-4-((1-(trifluoromethyl)cyclopropyl)methyl)-5,6-dihydro-4H-[1,4]oxazepino[5,6,7-de]quinazolin-9-yl)-7-fluorobenzo[b]thiophene-3-carbonitrile]: the IC50 on K-Ras G12D, on K-Ras G12S and at K-Ras WT was less than 100 nM each time.

`N#Cc1c(N)sc2c(F)ccc(-c3c(Cl)c4c5c(nc(OC[C@@]67CCCN6C[C@H](F)C7)nc5c3F)N(CC(F)F)C(C3CCNC3)CO4)c12` (stereo partly drawn) [Compound 1034, 2-amino-4-(8-chloro-4-(2,2-difluoroethyl)-10-fluoro-2-(((2R,7aS)-2-fluorotetrahydro-1H-pyrrolizin-7a(5H)-yl)methoxy)-5-(pyrrolidin-3-yl)-5,6-dihydro-4H-[1,4]oxazepino[5,6,7-de]quinazolin-9-yl)-7-fluorobenzo[b]thiophene-3-carbonitrile]: the half-maximal inhibitory concentration (IC50) on K-Ras G12D, on K-Ras G12S and at K-Ras WT was less than 100 nM in each case.

In the case of `C[C@H](Oc1nc2c3c(c(Cl)c(-c4ccc(F)c5sc(N)c(C#N)c45)c(F)c3n1)OCCN2C1CCCOCC1)[C@@H]1CCCN1C` (stereo partly drawn) [Compound 1121, 2-amino-4-(8-chloro-10-fluoro-2-((S)-1-((S)-1-methylpyrrolidin-2-yl)ethoxy)-4-(oxepan-4-yl)-5,6-dihydro-4H-[1,4]oxazepino[5,6,7-de]quinazolin-9-yl)-7-fluorobenzo[b]thiophene-3-carbonitrile], the IC50 at K-Ras G12S, on K-Ras G12V and on K-Ras WT was less than 100 nM throughout.

`N#Cc1c(N)sc2c(F)ccc(-c3c(Cl)c4c5c(nc(OC[C@@]67CCCN6C[C@H](F)C7)nc5c3F)N(C3CCOC3)[C@@H](C3(C#N)CC3)CO4)c12` (stereo partly drawn) [Compound 1130, 2-amino-4-((5S)-8-chloro-5-(1-cyanocyclopropyl)-10-fluoro-2-(((2R,7aS)-2-fluorotetrahydro-1H-pyrrolizin-7a(5H)-yl)methoxy)-4-(tetrahydrofuran-3-yl)-5,6-dihydro-4H-[1,4]oxazepino[5,6,7-de]quinazolin-9-yl)-7-fluorobenzo[b]thiophene-3-carbonitrile]: the IC50 at K-Ras G12S, at K-Ras G12V and on K-Ras WT was less than 100 nM throughout.

As for `CN1c2nc(OC[C@@]34CCCN3C[C@H](F)C4)nc3c(F)c(-c4ccc(F)c5sc(N)c(C#N)c45)c(Cl)c(c23)OCC[C@H]1C1(F)CC1` [Compound 1221, 2-amino-4-((5S)-9-chloro-11-fluoro-5-(1-fluorocyclopropyl)-2-(((2R,7aS)-2-fluorotetrahydro-1H-pyrrolizin-7a(5H)-yl)methoxy)-4-methyl-4,5,6,7-tetrahydro-[1,5]oxazocino[4,3,2-de]quinazolin-10-yl)-7-fluorobenzo[b]thiophene-3-carbonitrile], the IC50 at K-Ras G12S, at K-Ras G12V and at K-Ras WT was less than 100 nM each time.
